# Test results reported in PubChem BioAssay AID792 (PCMD, 2007).
# Results filed as inconclusive are left out. Active and inactive are the calls of the source. No rule for the calls is given here.
# Target: S. cerevisiae eIF2B mutant, luciferase reporter luminescence
# Experiment: potency on yeast eIF2B luminescence signal – S. cerevisiae, mutant, wild-type, growth, dose response (AID 792)
# [1] = measured here: mutant yeast growth
# [2] = S. cerevisiae wild-type, luminescence
Structure (SMILES),IC50,IC50 [1],IC50 [2]
CCOC(=O)CC(=O)CSc1nc(C)cc(-c2cccnc2)c1C#N,> 100 µM (inactive),> 100 µM,
CC(=O)/C=C(\C)Nc1ccc(-c2cnc(-c3ccccc3)o2)cc1,inactive,> 100 µM,> 100 µM
CC(C)C(NC(=O)c1ccccc1)C(=O)NC1=NCCS1 (stereo unspecified),> 100 µM (inactive),> 100 µM,
O=C(CC1Nc2ccccc2NC1=O)NC1CCCCC1 (stereo unspecified),> 100 µM (inactive),> 100 µM,
CC(N=c1ccccn1C(=O)Nc1cccc(C(F)(F)F)c1)c1ccco1 (stereo unspecified),> 100 µM (inactive),> 100 µM,
c1ccc2c(c1)ncn2-c1ncnc2sc3c(c12)CCCC3,> 100 µM (inactive),> 100 µM,
Cc1c(C(=O)N2CCN(c3ccccc3F)CC2)sc2nc(-c3ccccc3)cn12,> 100 µM (inactive),> 100 µM,
C=CCn1c(COc2ccccc2F)nnc1SCC(=O)Nc1cc2oc3ccccc3c2cc1OC,> 100 µM (inactive),> 100 µM,
CCC(C(=O)NCc1ccc(OC)cc1)n1nc(C)n2c(cc3occc32)c1=O (stereo unspecified),> 100 µM (inactive),> 100 µM,
Cc1ncc(CO)c2cc(C(N)=O)c(=Nc3ccccc3)oc12,> 100 µM (inactive),> 100 µM,
c1ccc2c(c1)CNc1ccccc1O2,> 100 µM (inactive),> 100 µM,
Cc1cccc(-n2c(SCC(=O)Nc3nonc3C)nnc2-c2ccoc2C)c1,> 100 µM (inactive),> 100 µM,
O=C(OCCn1cncn1)c1cc2ccccc2oc1=O,> 100 µM (inactive),> 100 µM,
COc1cccc(Oc2cn[nH]c2-c2ccc(OC)cc2O)c1,inactive,40.8 µM,44.1 µM
COc1ccc(N/C=C(\C#N)c2nc3ccccc3n2C)c(OC)c1,> 100 µM (inactive),> 100 µM,
CCC(C)Oc1cccc(OCCCCN2C(=O)NC(C)(C)C2=O)c1 (stereo unspecified),> 100 µM (inactive),> 100 µM,
O=C(Nc1nc(-c2ccc(S(=O)(=O)N3CCCCCC3)cc2)cs1)c1cccs1,> 100 µM (inactive),> 100 µM,
CC(C)C(=O)N1CCN(C2=NS(=O)(=O)c3ccccc32)CC1,> 100 µM (inactive),> 100 µM,
CCN1CCN(c2cc(C(C)(C)C)nc3c(-c4ccccc4)c(C)nn23)CC1,inactive,15.8 µM,
COc1cccc(NC(=O)CN(c2ccc(C)cc2)S(=O)(=O)c2c(C)nn(C)c2C)c1,> 100 µM (inactive),> 100 µM,

Structure (SMILES),IC50,IC50 [1],IC50 [2]
CCOC(=O)N1CCN(C(=O)c2ccc(N3CCCC3=O)cc2)CC1,> 100 µM (inactive),> 100 µM,
Cc1nnc(NC(=O)C2(c3ccccc3)CCOCC2)s1,> 100 µM (inactive),> 100 µM,
COc1ccccc1NC(=S)NNC(=O)c1ccccc1,> 100 µM (inactive),> 100 µM,
O=C(Nc1ccc(Cl)cn1)c1ccccc1F,> 100 µM (inactive),> 100 µM,
Cc1nnc2sc(-c3ccncc3)nn12,> 100 µM (inactive),> 100 µM,
CC(=O)c1cnc(Nc2nc(C)c3cc(C)c(C)cc3n2)nc1C,> 100 µM (inactive),> 100 µM,
O=C(CCc1ccccc1)Nc1ccc(Cl)cn1,> 100 µM (inactive),> 100 µM,
N#CC1=C(SCC(=O)c2ccc(Cl)cc2)NC2=C(C(=O)CCC2)C1c1ccco1 (stereo unspecified),> 100 µM (inactive),> 100 µM,
CCN(CC)c1ncnc2sc(C(=O)N3CCN(c4ccc(OC)cc4)CC3)c(C)c12,> 100 µM (inactive),> 100 µM,
CN1CCN(C(=O)CSc2nc(-c3ccncc3)ccc2C#N)CC1,> 100 µM (inactive),> 100 µM,
C=CCc1c(C)nc(C)nc1N/N=C/c1ccccc1O,> 100 µM (inactive),> 100 µM,
Cc1c(C(=O)Nc2nccs2)sc2nc(-c3cccs3)cc(C(F)(F)F)c12,> 100 µM (inactive),> 100 µM,
Cc1cccn2c(=O)c3cc(C(=O)N4c5ccccc5CC4C)n(C)c3nc12 (stereo unspecified),> 100 µM (inactive),> 100 µM,
COc1cc(/C=C2\C(=O)N(CCC#N)N=C2C)c(Br)cc1OC(C)C,> 100 µM (inactive),> 100 µM,
C=CCN(C(=O)CCC(=O)O)C1CC(=O)N(c2ccc(OC)cc2)C1=O (stereo unspecified),> 100 µM (inactive),> 100 µM,
NC(=O)CSc1nnc(-c2ccco2)n1N,> 100 µM (inactive),> 100 µM,
C=CCSc1nnc2c(n1)OC(c1cccnc1)N(C(C)=O)c1ccccc1-2 (stereo unspecified),> 100 µM (inactive),> 100 µM,
Cn1c(=O)n(CC(=O)N2CCC3(CC2)OCCO3)c(=O)c2ccccc21,> 100 µM (inactive),> 100 µM,
COCC(=O)Nc1cc(OC)c(Cl)cc1OC,> 100 µM (inactive),> 100 µM,
COc1ccc(C(=O)Nn2c(C)nnc2-n2nc(C)cc2C)cc1OC,> 100 µM (inactive),> 100 µM,

Structure (SMILES),IC50,IC50 [1],IC50 [2]
CCCc1nc(-c2ccccc2O)n(-c2ccccc2)n1,> 100 µM (inactive),> 100 µM,
CCCS(=O)(=O)N1CCC(C(=O)NCCc2ccc(C)cc2)CC1,> 100 µM (inactive),> 100 µM,
Cc1ccc(-c2nnc(COc3cccc(-n4cnnn4)c3)o2)cc1,> 100 µM (inactive),> 100 µM,
O=C(CCS(=O)CCC(=O)NCc1ccccc1)NCc1ccccc1,> 100 µM (inactive),> 100 µM,
CN1C(=O)CC2(CC(=O)N(Cc3ccccc3)C2)C1=O (stereo unspecified),> 100 µM (inactive),> 100 µM,
Nn1c(COc2cccc(Br)c2)nnc1SCC(=O)N1CCc2ccccc2C1,> 100 µM (inactive),> 100 µM,
Cc1csc(NC(=O)c2cccn2C)n1,inactive,> 100 µM,16.4 µM
Cc1cnc(NC(=O)CN(C)S(=O)(=O)c2ccc(Cl)cc2)s1,> 100 µM (inactive),> 100 µM,
CNc1nc2ccccc2n1/N=C/c1cccc(OC)c1OC,> 100 µM (inactive),> 100 µM,
COc1ccc(OC)c(NC(=O)CNC(=O)Cn2cnc3ccccc3c2=O)c1,> 100 µM (inactive),> 100 µM,
CCOC(=O)C1(C)/C(=N/Nc2ccccc2)C(=O)C(=O)N1c1ccccc1 (stereo unspecified),> 100 µM (inactive),> 100 µM,
C=CCn1c(SC2CCOC2=O)nc2sc(CC)cc2c1=O (stereo unspecified),> 100 µM (inactive),> 100 µM,
O=C(CCC1COc2ccccc2O1)Nc1ccc(Cl)cn1 (stereo unspecified),> 100 µM (inactive),> 100 µM,
CCC(C)c1ccc(OCC(=O)O)cc1 (stereo unspecified),> 100 µM (inactive),> 100 µM,
CC(=O)Nc1ccc(C(=O)NC2CCCC2)cc1,> 100 µM (inactive),> 100 µM,
Cc1nc2ccc(NC(=O)Cc3ccsc3)cc2s1,> 100 µM (inactive),> 100 µM,
CCCCOc1ccc(C2CC(=O)N(C)C2=O)cc1 (stereo unspecified),> 100 µM (inactive),> 100 µM,
Cc1ccc(S(=O)(=O)n2nc(OC(=O)c3ccco3)cc2N)cc1,> 100 µM (inactive),> 100 µM,
CC(NC(=O)Nc1ccc(F)cc1F)c1ccncc1 (stereo unspecified),> 100 µM (inactive),> 100 µM,
